Assay results reported in ChEMBL document CHEMBL1159354, “Sphingolipids from Bombycis Corpus 101A and their neurotrophic effects” (J Nat Prod, 2003).
The source made the active and inactive calls. The rule behind the calls is not given here.

Tests used:
[1] = test system: PC-12; assay: Induction of neurite outgrowth in rat PC12 cells assessed as neurite length at 10 uM; type: functional, cell-based
[2] = test system: PC-12; assay: Induction of neurite outgrowth in rat PC12 cells assessed as neurite length; type: functional, cell-based

| Compound | Activity [1] | Activity [2] |
| --- | --- | --- |
| CCCCCCC/C=C/C=C/[C@@H](O)[C@H](CO)NC(=O)CCCCCCCCCCCCCCCCCCC | Active |  |
| CCCCCCCCC/C=C/[C@@H](O)[C@H](CO)NC(=O)CCCCCCCCCCCCCCCCC |  | Active |
| CCCCCCCCC/C=C/[C@@H](O)[C@H](CO)NC(=O)CCCCCCCCCCCCCCCCCCC |  | Active |
| CCCCCCC/C=C/C=C/[C@@H](O)[C@H](CO)NC(=O)CCCCCCCCCCCCCCCCCCCCC | Active |  |
